# Results reported in paper PMC3663763, “The novel BH3 α-helix mimetic JY-1-106 induces apoptosis in a subset of cancer cells (lung cancer, colon cancer and mesothelioma) by disrupting Bcl-xL and Mcl-1 protein–protein interactions with Bak” (Molecular Cancer, 2013).
# Experiments:
# Bcl-xL = target: T1, Bcl-xL (Homo sapiens, UniProt Q07817); assay: co-immunoprecipitation: displacement of Bak from endogenous Bcl-xL in REN cells at […]; format: cell-based
# T1 construct: gene BCL2L1; endogenous Bcl-xL
# Mcl-1 = target: T2, Mcl-1 (Homo sapiens, UniProt Q07820); assay: fluorescence polarization competition with FITC-Bak-BH3 peptide, […] Mcl-1 (IC50 […]); supported by co-IP in REN cells; format: binding
# T2 construct: gene MCL1
# T2 sequence (Q07820 whole entry): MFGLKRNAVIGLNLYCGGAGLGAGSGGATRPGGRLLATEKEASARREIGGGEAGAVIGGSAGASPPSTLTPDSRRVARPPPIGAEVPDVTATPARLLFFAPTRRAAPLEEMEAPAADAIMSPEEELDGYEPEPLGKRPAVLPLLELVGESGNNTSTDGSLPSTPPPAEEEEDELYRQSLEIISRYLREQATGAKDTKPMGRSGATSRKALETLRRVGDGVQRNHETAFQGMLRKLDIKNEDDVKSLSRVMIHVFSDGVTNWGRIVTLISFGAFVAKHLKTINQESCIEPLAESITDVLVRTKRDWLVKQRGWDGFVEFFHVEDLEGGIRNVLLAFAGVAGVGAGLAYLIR
# T1 sequence (Q07817 whole entry): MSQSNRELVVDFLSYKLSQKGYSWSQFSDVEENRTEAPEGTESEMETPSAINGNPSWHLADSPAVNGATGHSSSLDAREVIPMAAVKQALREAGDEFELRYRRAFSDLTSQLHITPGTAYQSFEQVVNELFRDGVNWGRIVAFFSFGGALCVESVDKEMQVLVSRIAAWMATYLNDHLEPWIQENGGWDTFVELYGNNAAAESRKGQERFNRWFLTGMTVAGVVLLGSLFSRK
# T1 sequence (Q16611 2-211 partner): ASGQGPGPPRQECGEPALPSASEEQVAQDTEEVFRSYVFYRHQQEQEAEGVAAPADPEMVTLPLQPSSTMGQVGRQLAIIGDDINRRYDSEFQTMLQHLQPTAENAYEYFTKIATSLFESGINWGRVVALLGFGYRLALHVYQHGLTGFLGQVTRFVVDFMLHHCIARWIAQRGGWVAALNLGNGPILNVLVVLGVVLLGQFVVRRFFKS
smiles,measurement,setting,value
CC(C)Oc1cc(C(=O)Nc2ccc(C(=O)Nc3ccc(C(=O)O)cc3OC(C)C)nc2OC(C)C)ccc1N [JY-1-106],co-immunoprecipitation: displacement of Bak from endogenous Bcl-xL in REN cells,Bcl-xL,JY-1-106 as well as ABT-737 can effectively displace Bak from its inhibitory binding with Bcl-xL
same,Ki,Mcl-1,1790 ± 150 nM
